Test results published in patent US20090124588A1, “Androstane 17-Alpha-Carbonate for Use in the Treatment of Inflammatory and Allergic Conditions” (Glaxo Group Limited, priority 2005, published 2009).

Tests used:
Assay type in all cases: cell-based
Progesterone Receptor = target: T1, Progesterone Receptor (Homo sapiens, UniProt P06401); assay: Progesterone receptor activity (CV-1 cells transduced with PRb-BacMam and MMTV-BacMam); conditions: 24 h, Steady Glo, read-out: pEC50 progesterone receptor (converted)
T1 construct: expressed in transfected cells; host or cells: CV-1 cells transduced with BacMam virus
T1 sequence (P06401 1-933): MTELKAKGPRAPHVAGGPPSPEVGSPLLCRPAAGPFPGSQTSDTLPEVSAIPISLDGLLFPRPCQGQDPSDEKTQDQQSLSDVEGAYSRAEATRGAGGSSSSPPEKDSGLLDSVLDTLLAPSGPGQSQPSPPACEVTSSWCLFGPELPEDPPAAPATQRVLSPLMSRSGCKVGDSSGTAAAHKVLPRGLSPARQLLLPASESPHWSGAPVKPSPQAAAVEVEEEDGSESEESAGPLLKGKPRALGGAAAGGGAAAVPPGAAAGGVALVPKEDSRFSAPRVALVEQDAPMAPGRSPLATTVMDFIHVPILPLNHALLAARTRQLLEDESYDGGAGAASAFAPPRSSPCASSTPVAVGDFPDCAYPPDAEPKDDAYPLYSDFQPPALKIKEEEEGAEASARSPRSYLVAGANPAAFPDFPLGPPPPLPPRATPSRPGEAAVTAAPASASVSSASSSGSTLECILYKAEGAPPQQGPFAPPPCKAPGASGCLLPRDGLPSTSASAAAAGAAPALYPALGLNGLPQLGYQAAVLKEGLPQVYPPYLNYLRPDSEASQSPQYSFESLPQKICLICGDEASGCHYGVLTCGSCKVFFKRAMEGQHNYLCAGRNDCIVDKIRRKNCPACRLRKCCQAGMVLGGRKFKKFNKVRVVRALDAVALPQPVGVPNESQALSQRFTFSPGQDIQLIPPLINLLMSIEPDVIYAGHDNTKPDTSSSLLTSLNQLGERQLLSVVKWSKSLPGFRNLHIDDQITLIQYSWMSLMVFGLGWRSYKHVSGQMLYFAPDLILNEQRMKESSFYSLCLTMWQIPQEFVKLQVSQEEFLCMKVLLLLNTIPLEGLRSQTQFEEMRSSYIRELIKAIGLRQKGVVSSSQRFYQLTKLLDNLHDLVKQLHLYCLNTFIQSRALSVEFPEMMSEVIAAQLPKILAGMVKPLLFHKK
Description: A T225 flask of CV-1 cells at a density of 80% confluency was washed with PBS, detached from the flask using 0.25% trypsin and counted using a Sysmex KX-21N. Cells were diluted in DMEM containing 10% Hyclone, 2 mM […] and 1% Pen/Strep at 140 cells/μl and transduced with 10% PRb-BacMam and 10% MMTV-BacMam. […] of suspension cells were dispensed to each well of white Nunc 384-well plates, containing compounds at the required concentration. After 24 h 10 μl of Steady Glo were added to each well of the plates. Plates were incubated in the dark for 10 min before reading them on a Viewlux reader. Dose response curves were constructed from which pEC50 values were estimated.

glucocorticoid receptor [1] = target: T2, glucocorticoid receptor (Homo sapiens, UniProt P04150); assay: Transactivation activity of glucocorticoid agonists (MMTV-LTR renilla luciferase reporter in A549 cells); conditions: 6 hour at 37° C., read-out: maximal response relative to Dexamethasone (100%)
T2 sequence (P04150 1-777): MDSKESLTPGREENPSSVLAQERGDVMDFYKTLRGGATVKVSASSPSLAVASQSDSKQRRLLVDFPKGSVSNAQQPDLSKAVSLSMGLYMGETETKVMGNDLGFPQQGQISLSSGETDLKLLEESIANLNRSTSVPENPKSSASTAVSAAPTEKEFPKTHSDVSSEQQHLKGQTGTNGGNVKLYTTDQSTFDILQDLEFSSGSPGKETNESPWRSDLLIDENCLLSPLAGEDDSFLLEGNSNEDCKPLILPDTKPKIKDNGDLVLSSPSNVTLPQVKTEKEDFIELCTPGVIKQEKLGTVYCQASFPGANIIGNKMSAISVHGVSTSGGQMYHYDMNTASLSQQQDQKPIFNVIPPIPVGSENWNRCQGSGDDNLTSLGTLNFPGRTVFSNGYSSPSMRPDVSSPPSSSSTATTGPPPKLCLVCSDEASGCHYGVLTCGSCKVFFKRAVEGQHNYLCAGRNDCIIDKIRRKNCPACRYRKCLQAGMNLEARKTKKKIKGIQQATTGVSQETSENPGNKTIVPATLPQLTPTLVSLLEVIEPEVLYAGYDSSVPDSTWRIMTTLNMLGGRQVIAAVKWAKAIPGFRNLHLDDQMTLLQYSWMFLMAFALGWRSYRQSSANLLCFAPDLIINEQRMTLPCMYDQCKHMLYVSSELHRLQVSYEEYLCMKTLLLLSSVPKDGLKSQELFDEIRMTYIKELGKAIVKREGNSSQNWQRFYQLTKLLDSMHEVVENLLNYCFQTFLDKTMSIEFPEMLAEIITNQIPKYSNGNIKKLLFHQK
Description: The functional assay based on that described by R. J. H. Austin et al., Eur Resp J. (2002), 20, 1386-1392 measures the ability of compounds to directly transactivate gene expression. A549 cells stably transfected with a reporter gene containing the glucocorticoid responsive region of the mouse mammary tumour virus long terminal repeat (MMTV-LTR) coupled to renilla luciferase were treated with test compounds at appropriate doses for 6 hour at 37° C. The amount of luciferase activity present within the cells is then determined by measuring the light emitted following incubation with a suitable substrate. Dose response curves were constructed from which EC50 values were estimated and from which maximal responses are calculated relative to Dexamethasone (100%).

glucocorticoid receptor [2] = target: T2, glucocorticoid receptor; assay: Transrepression activity of glucocorticoid agonists (NF-κB/ELAM-sPAP reporter in A549 cells, TNF stimulated); conditions: NF-κB responsive ELAM promoter-sPAP reporter, compound 1 hour, TNF 10 ng/ml 16 hours, read-out: pEC50 transrepression (converted)
Description: The functional assay based on that described by K. P. Ray et al., Biochem J. (1997), 328, 707-715 provides a measure of transrepressive activity of a glucocorticoid agonist. A549 cells stably transfected with a reporter gene containing the NF-κB responsive elements from the ELAM gene promoter coupled to sPAP (secreted alkaline phosphatase) are treated with test compounds at appropriate doses for 1 hour at 37° C. The cells are then stimulated with tumour necrosis factor (TNF, 10 ng/ml) for 16 hours, at which time the amount of alkaline phosphatase produced is measured by a standard colourimetric assay. Dose response curves were constructed from which EC50 values were estimated.

Which results are given for CCC(C)(C)OC(=O)O[C@]1(C(=O)OCC#N)[C@H](C)C[C@H]2[C@@H]3C[C@H](F)C4=CC(=O)C=C[C@]4(C)[C@@]3(F)[C@@H](O)C[C@@]21C [Example 2, Cyanomethyl (6α,11β,16α,17α)-17-({[(1,1-dimethylpropyl)oxy]carbonyl}oxy)-6,9-difluoro-1-hydroxy-16-methyl-3-oxoandrosta-1,4-diene-17-carboxylate]?
EC50 (Progesterone Receptor): > 100 nM; Emax (glucocorticoid receptor [1]): < 10%; EC50 (glucocorticoid receptor [2]): < 0.1 nM

Which EC50 (Progesterone Receptor) does the source give for C[C@@H]1C[C@H]2[C@@H]3C[C@H](F)C4=CC(=O)C=C[C@]4(C)[C@@]3(F)[C@@H](O)C[C@]2(C)[C@@]1(OC(=O)OC(C)(C)C)C(=O)OCC#N [Example 1, Cyanomethyl (6α,11β,16α,17α)-17-({[(1,1-dimethylethyl)oxy]carbonyl}oxy)-6,9-difluoro-11-hydroxy-16-methyl-3-oxoandrosta-1,4-diene-17-carboxylate] here?
The EC50 was greater than 100 nM.

And the Emax (glucocorticoid receptor [1])?
Its Emax is less than 10%.

And the EC50 (glucocorticoid receptor [2])?
Its EC50 is less than 0.1 nM.
